Test results as given in PubChem BioAssay (NCI).
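Where inhibition never reached the appropriate level, the endpoint shown equals the highest concentration tested. Otherwise, values were interpolated linearly from a five-concentration, 48-hour dose response in 96-well plates. The concentration for 50% growth inhibition is given as GI50. TGI denotes the concentration required for complete inhibition of growth.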

Key:
Test in all cases: inhibition of tumour cell growth, NCI panel, 48 h
HCC-2998 colon = test system: HCC-2998 colon
MALME-3M melanoma = test system: MALME-3M melanoma
OVCAR-8 ovarian = test system: OVCAR-8 ovarian
KM12 colon = test system: KM12 colon
MDA-MB-231 breast = test system: MDA-MB-231 breast
SN12C renal = test system: SN12C renal
T-47D breast = test system: T-47D breast
RPMI-8226 leukemia = test system: RPMI-8226 leukemia
ACHN renal = test system: ACHN renal
HL-60(TB) leukemia = test system: HL-60(TB) leukemia
EKVX NSCLC = test system: EKVX NSCLC
IGROV1 ovarian = test system: IGROV1 ovarian
HS 578T breast = test system: HS 578T breast
NCI-H522 lung = test system: NCI-H522 lung
TK-10 renal = test system: TK-10 renal
UO-31 renal = test system: UO-31 renal
SK-MEL-28 melanoma = test system: SK-MEL-28 melanoma
HT29 colon = test system: HT29 colon
DU-145 prostate = test system: DU-145 prostate
SF-539 CNS = test system: SF-539 CNS
NCI-H226 lung = test system: NCI-H226 lung
OVCAR-5 ovarian = test system: OVCAR-5 ovarian
UACC-62 melanoma = test system: UACC-62 melanoma
K-562 leukemia = test system: K-562 leukemia
NCI/ADR-RES ovarian = test system: NCI/ADR-RES ovarian
HCT-15 colon = test system: HCT-15 colon
HCT-116 colon = test system: HCT-116 colon
SNB-19 CNS = test system: SNB-19 CNS
A549 NSCLC = test system: A549 NSCLC
MDA-MB-435 = test system: MDA-MB-435
786-0 renal = test system: 786-0 renal
OVCAR-3 ovarian = test system: OVCAR-3 ovarian
CAKI-1 renal = test system: CAKI-1 renal
SK-MEL-5 melanoma = test system: SK-MEL-5 melanoma
SK-MEL-2 melanoma = test system: SK-MEL-2 melanoma
CCRF-CEM leukemia = test system: CCRF-CEM leukemia
A498 renal = test system: A498 renal
PC-3 prostate = test system: PC-3 prostate
UACC-257 melanoma = test system: UACC-257 melanoma
SNB-75 CNS = test system: SNB-75 CNS
MCF7 breast = test system: MCF7 breast
RXF 393 renal = test system: RXF 393 renal
OVCAR-4 ovarian = test system: OVCAR-4 ovarian
NCI-H23 lung = test system: NCI-H23 lung
BT-549 breast = test system: BT-549 breast
SK-OV-3 ovarian = test system: SK-OV-3 ovarian
COLO 205 colon = test system: COLO 205 colon
SF-268 CNS = test system: SF-268 CNS
M14 melanoma = test system: M14 melanoma
U251 CNS = test system: U251 CNS
NCI-H460 lung = test system: NCI-H460 lung
MOLT-4 leukemia = test system: MOLT-4 leukemia
SF-295 CNS = test system: SF-295 CNS
LOX IMVI melanoma = test system: LOX IMVI melanoma
HOP-62 NSCLC = test system: HOP-62 NSCLC
SW-620 colon = test system: SW-620 colon
HOP-92 NSCLC = test system: HOP-92 NSCLC
SR leukemia = test system: SR leukemia

S=C(NCc1ccc2c(c1)OCO2)N1CCN(c2ncnc3c2oc2ccccc23)CC1
GI50 (HCC-2998 colon): > 100 µM
TGI (HCC-2998 colon): > 100 µM
GI50 (MALME-3M melanoma): > 100 µM
TGI (MALME-3M melanoma): > 100 µM
GI50 (OVCAR-8 ovarian): 5.43 µM
TGI (OVCAR-8 ovarian): > 100 µM
GI50 (KM12 colon): 36.7 µM
TGI (KM12 colon): > 100 µM
GI50 (MDA-MB-231 breast): > 100 µM
TGI (MDA-MB-231 breast): > 100 µM
GI50 (SN12C renal): > 100 µM
TGI (SN12C renal): > 100 µM
GI50 (T-47D breast): 2.3 µM
TGI (T-47D breast): > 100 µM
GI50 (RPMI-8226 leukemia): 6.6 µM
TGI (RPMI-8226 leukemia): > 100 µM
GI50 (ACHN renal): > 63.3 µM
TGI (ACHN renal): > 100 µM
GI50 (HL-60(TB) leukemia): 4.87 µM
TGI (HL-60(TB) leukemia): > 95.4 µM
GI50 (EKVX NSCLC): 3.5 µM
TGI (EKVX NSCLC): > 100 µM
GI50 (IGROV1 ovarian): > 100 µM
TGI (IGROV1 ovarian): > 100 µM
GI50 (HS 578T breast): > 100 µM
TGI (HS 578T breast): > 100 µM
GI50 (NCI-H522 lung): 24 µM
TGI (NCI-H522 lung): > 100 µM
GI50 (TK-10 renal): 1.12 µM
GI50 (UO-31 renal): > 21.7 µM
TGI (UO-31 renal): > 100 µM
GI50 (SK-MEL-28 melanoma): > 100 µM
TGI (SK-MEL-28 melanoma): > 100 µM
GI50 (HT29 colon): 18 µM
TGI (HT29 colon): > 100 µM
GI50 (DU-145 prostate): > 100 µM
TGI (DU-145 prostate): > 100 µM
GI50 (SF-539 CNS): > 100 µM
TGI (SF-539 CNS): > 100 µM
GI50 (NCI-H226 lung): 3.25 µM
TGI (NCI-H226 lung): > 100 µM
GI50 (OVCAR-5 ovarian): > 100 µM
TGI (OVCAR-5 ovarian): > 100 µM
GI50 (UACC-62 melanoma): 14.1 µM
TGI (UACC-62 melanoma): > 100 µM
GI50 (K-562 leukemia): 3.6 µM
TGI (K-562 leukemia): > 100 µM
GI50 (NCI/ADR-RES ovarian): 4.69 µM
TGI (NCI/ADR-RES ovarian): > 100 µM
GI50 (HCT-15 colon): > 100 µM
TGI (HCT-15 colon): > 100 µM
GI50 (HCT-116 colon): 3.68 µM
TGI (HCT-116 colon): > 100 µM
GI50 (SNB-19 CNS): > 100 µM
TGI (SNB-19 CNS): > 100 µM
GI50 (A549 NSCLC): 7.24 µM
TGI (A549 NSCLC): > 100 µM
GI50 (MDA-MB-435): 8.16 µM
TGI (MDA-MB-435): > 100 µM
GI50 (786-0 renal): > 100 µM
TGI (786-0 renal): > 100 µM
GI50 (OVCAR-3 ovarian): 25.2 µM
TGI (OVCAR-3 ovarian): > 100 µM
GI50 (CAKI-1 renal): 5.93 µM
TGI (CAKI-1 renal): > 100 µM
GI50 (SK-MEL-5 melanoma): 0.575 µM
TGI (SK-MEL-5 melanoma): 3.28 µM
GI50 (SK-MEL-2 melanoma): 50.3 µM
TGI (SK-MEL-2 melanoma): > 100 µM
GI50 (CCRF-CEM leukemia): > 82.7 µM
TGI (CCRF-CEM leukemia): > 100 µM
GI50 (A498 renal): 4.42 µM
TGI (A498 renal): > 100 µM
GI50 (PC-3 prostate): 6.88 µM
TGI (PC-3 prostate): > 100 µM
GI50 (UACC-257 melanoma): 1.71 µM
TGI (UACC-257 melanoma): > 33.7 µM
GI50 (SNB-75 CNS): > 100 µM
TGI (SNB-75 CNS): > 100 µM
GI50 (MCF7 breast): 4.83 µM
TGI (MCF7 breast): > 100 µM
GI50 (RXF 393 renal): > 100 µM
TGI (RXF 393 renal): > 100 µM
GI50 (OVCAR-4 ovarian): 0.451 µM
TGI (OVCAR-4 ovarian): > 100 µM
GI50 (NCI-H23 lung): 5.34 µM
TGI (NCI-H23 lung): > 100 µM
GI50 (BT-549 breast): 26.9 µM
TGI (BT-549 breast): > 100 µM
GI50 (SK-OV-3 ovarian): > 100 µM
TGI (SK-OV-3 ovarian): > 100 µM
GI50 (COLO 205 colon): 66.1 µM
TGI (COLO 205 colon): > 100 µM
GI50 (SF-268 CNS): > 100 µM
TGI (SF-268 CNS): > 100 µM
GI50 (M14 melanoma): > 71.4 µM
TGI (M14 melanoma): > 100 µM
GI50 (U251 CNS): 27.2 µM
TGI (U251 CNS): > 100 µM
GI50 (NCI-H460 lung): 6.85 µM
TGI (NCI-H460 lung): > 100 µM
GI50 (MOLT-4 leukemia): 3.95 µM
TGI (MOLT-4 leukemia): > 100 µM
GI50 (SF-295 CNS): 5.38 µM
TGI (SF-295 CNS): > 100 µM
GI50 (LOX IMVI melanoma): > 100 µM
TGI (LOX IMVI melanoma): > 100 µM
GI50 (HOP-62 NSCLC): > 100 µM
TGI (HOP-62 NSCLC): > 100 µM
GI50 (SW-620 colon): > 100 µM
TGI (SW-620 colon): > 100 µM
GI50 (HOP-92 NSCLC): 14.3 µM
TGI (HOP-92 NSCLC): > 100 µM
GI50 (SR leukemia): 3.7 µM
TGI (SR leukemia): > 100 µM
